From US4529602A, “Method for treatment or prophylaxis of gastro-intestinal disease” (priority 1981, dated 1985)
Structures can show the parent of a compound that is named as a salt.

What was measured:
gastric acid secretion = assay: Preventive effect on gastric acid secretion in pylorus-ligated rats; assay type: in vivo, Male SD-strain rats; conditions: 100 mg/kg oral, 5 h after administration
Protocol: (§1) Preventive effect on acid and pepsin secretions
(§2) Male SD-strain rats (6 to 7 weeks old) were starved for 48 hours, and then the pylori were ligated. Immediately after ligation, a solution or suspension of a test compound in distilled water was administered orally into the stomachs in an amount of 0.2 ml per 100 g of body weight (Dose: 100 mg/kg). Five hours after said administration of the test compound, the rats were sacrificed and the stomachs were removed. The gastric contents were centrifuged at 2,500 rpm for 10 minutes and the gastric juice was collected as the supernatant. The concentration of pepsin in the gastric juice was determined by Anson's method (c.f., J. Gen. Physiol., 22, pp. 77-89 (1938)) using hemoglobin as the substrate, and the preventive effect of the test compound on the pepsin secretion was estimated in terms of "decrease in pepsin concentration" according to the following formula: [formula]
On the other hand, the concentration of free acid in the gastric juice was determined by titrating said gastric juice to pH 7.0 with 0.1N NaOH, and the preventive effect of the test compound on the gastric acid secretion was estimated in terms of "the decrease in acidity of gastric juice" according to the following formula: [formula] (Results)

pepsin secretion = assay: Preventive effect on pepsin secretion in pylorus-ligated rats; assay type: in vivo, Male SD-strain rats; conditions: 100 mg/kg oral, 5 h after administration
Protocol: as §1, §2

aspirin-induced ulcers = assay: Effect on aspirin-induced ulcers; assay type: in vivo, Male Donryu-strain rats; conditions: aspirin 200 mg/kg
Protocol: Male Donryu-strain rats (8 to 9 weeks old) were starved overnight, and a solution or suspension of a test compound in distilled water was administered orally into the stomachs in an amount of one ml per 100 g of body weight. Half an hour later, a suspension of aspirin in 0.25% CMC solution was administered orally to the rats in an amount of 0.5 ml per 100 g of body weight (Dose: 200 mg/kg). Four hours after the administration of aspirin, the rats were sacrificed and the stomachs were removed and inflated by injecting 10 ml of 1% formalin solution to fix the inner layers of the gastric walls. The stomach was then incised along the greater curvature and the lengths of the lesions were measured and summated to give ulcer index (in mm) for each animal. The preventive effect of the test compound on aspirin-induced ulcers were calculated by the following formula: [formula] (Results)

## CC(C)c1cc2c(cc1S(=O)(=O)O)[C@@]1(C)CCC[C@@](C)(C(=O)O)[C@@H]1CC2 [Hexamethylenediamine salt, sulfodehydroabietic acid hexamethylenediamine salt hemihydrate]
Gastric acid secretion; hemihydrate
  Decrease (%) in acidity of gastric juice: 32%
Pepsin secretion; hemihydrate
  Decrease (%) in pepsin concentration: 94%

## CC(C)c1cc2c(cc1S(=O)(=O)O)[C@@]1(C)CCC[C@@](C)(C(=O)O)[C@@H]1CC2 [L-Asparagine salt, sulfodehydroabietic acid L-asparagine salt monohydrate]
Gastric acid secretion; monohydrate
  Decrease (%) in acidity of gastric juice: 38%
Pepsin secretion; monohydrate
  Decrease (%) in pepsin concentration: 90%

## CC(C)c1cc2c(cc1S(=O)(=O)O)[C@@]1(C)CCC[C@@](C)(C(=O)O)[C@@H]1CC2 [2 (2-Dimethylaminoethyl)amine salt, sulfodehydroabietic acid di(2-dimethylaminoethylamine)salt monohydrate]
Gastric acid secretion; monohydrate
  Decrease (%) in acidity of gastric juice: 31%
Pepsin secretion; monohydrate
  Decrease (%) in pepsin concentration: 92%

## sulfodehydroabietic acid (aluminum monohydroxide) [Aluminum monohydroxide salt]
Pepsin secretion
  Decrease (%) in pepsin concentration: 91%

## CC(C)c1cc2c(cc1S(=O)(=O)O)[C@@]1(C)CCC[C@@](C)(C(=O)O)[C@@H]1CC2 [Ethylenediamine salt, sulfodehydroabietic acid ethylenediamine salt hemihydrate]
Pepsin secretion; hemihydrate
  Decrease (%) in pepsin concentration: 94%

## CC(C)c1cc2c(cc1S(=O)(=O)O)[C@@]1(C)CCC[C@@](C)(C(=O)O)[C@@H]1CC2 [2 (2-Methoxyethyl)amine salt, sulfodehydroabietic acid di(2-methoxyethylamine)salt]
Pepsin secretion
  Decrease (%) in pepsin concentration: 98%

## CC(C)c1cc2c(cc1S(=O)(=O)O)[C@@]1(C)CCC[C@@](C)(C(=O)O)[C@@H]1CC2 [L-S--Methylmethionine salt, sulfodehydroabietic acid S-methyl-L-methionine salt dihydrate]
Pepsin secretion; dihydrate
  Decrease (%) in pepsin concentration: 84%
aspirin-induced ulcers; p.o. 2 m mol./kg (1,086 mg/kg)
  Preventive effect on aspirin-induced ulcers: 85%

## CC(C)c1cc2c(cc1S(=O)(=O)O)[C@@]1(C)CCC[C@@](C)(C(=O)O)[C@@H]1CC2 [Carnosine salt, sulfodehydroabietic acic carnosine salt monohydrate]
Pepsin secretion; monohydrate
  Decrease (%) in pepsin concentration: 72%
aspirin-induced ulcers; p.o. 2 m mol./kg (1,248 mg/kg)
  Preventive effect on aspirin-induced ulcers: 33%

## CC(C)c1cc2c(cc1S(=O)(=O)O)[C@@]1(C)CCC[C@@](C)(C(=O)O)[C@@H]1CC2 [2 Isopropylamine salt, sulfodehydroabietic acid di(isopropylamine)salt]
Gastric acid secretion
  Decrease (%) in acidity of gastric juice: 40%
Pepsin secretion
  Decrease (%) in pepsin concentration: 95%

## sulfodehydroabietic acid di(aluminum dihydroxide)salt dihydrate [2 Aluminum dihydroxide salt]
Pepsin secretion
  Decrease (%) in pepsin concentration: 69%

## CC(C)c1cc2c(cc1S(=O)(=O)O)[C@@]1(C)CCC[C@@](C)(C(=O)O)[C@@H]1CC2 [L-Arginine salt, sulfodehydroabietic acid L-arginine salt hemihydrate]
Pepsin secretion; hemihydrate
  Decrease (%) in pepsin concentration: 77%

## CC(C)c1cc2c(cc1S(=O)(=O)O)[C@@]1(C)CCC[C@@](C)(C(=O)O)[C@@H]1CC2 [L-Lysine salt, sulfodehydroabietic acid L-lysine salt monohydrate]
Pepsin secretion; monohydrate
  Decrease (%) in pepsin concentration: 94%

## CC(C)c1cc2c(cc1S(=O)(=O)O)[C@@]1(C)CCC[C@@](C)(C(=O)O)[C@@H]1CC2 [L-Glutamine salt, sulfodehydroabietic acid L-glutamine salt hemihydrate]
Gastric acid secretion; hemihydrate
  Decrease (%) in acidity of gastric juice: 39%
Pepsin secretion; hemihydrate
  Decrease (%) in pepsin concentration: 90%

## CC(C)c1cc2c(cc1S(=O)(=O)O)[C@@]1(C)CCC[C@@](C)(C(=O)O)[C@@H]1CC2 [Tetramethylenediamine salt, sulfodehydroabietic acid tetramethylenediamine salt hemihydrate]
Gastric acid secretion; hemihydrate
  Decrease (%) in acidity of gastric juice: 36%
Pepsin secretion; hemihydrate
  Decrease (%) in pepsin concentration: 84%

## CC(C)c1cc2c(cc1S(=O)(=O)O)[C@@]1(C)CCC[C@@](C)(C(=O)O)[C@@H]1CC2 [2/3 Aluminum salt, sulfodehydroabietic acid 2/3 aluminum ssalt 7/3 hydrate]
Pepsin secretion; hydrate
  Decrease (%) in pepsin concentration: 95%

## CC(C)c1cc2c(cc1S(=O)(=O)O)[C@@]1(C)CCC[C@@](C)(C(=O)O)[C@@H]1CC2 [2 Morpholine salt, sulfodehydroabietic acid dimorpholine salt hemihydrate]
Pepsin secretion; hemihydrate
  Decrease (%) in pepsin concentration: 92%

## CC(C)c1cc2c(cc1S(=O)(=O)O)[C@@]1(C)CCC[C@@](C)(C(=O)O)[C@@H]1CC2 [2 Cyclohexylamine salt, sulfodehydroabietic acid di(cyclohexylamine)salt]
Pepsin secretion
  Decrease (%) in pepsin concentration: 71%
